Results taken from ChEMBL document CHEMBL2384987, “Metabolites from Microcystis aeruginosa bloom material collected at a water reservoir near Kibbutz Hafetz Haim, Israel” (J Nat Prod, 2013).
Activity calls are given as the source filed them. The calls are words filed in the database; no cut-off is given here. *1 amine or outer side, *2 acyl side, *3 side chain or, on linkers, in order; H or OH if unused. Where a SMILES comes first, the peptide text is derived from it. Bridges are numbered along the chain shown (N, C = ends). [ ]: non-standard residue; d: D form. The star is where a group is joined. Propanoyl(2R-OH,3-(4-HOPh)) = O=C([C@H](O)Cc1ccc(O)cc1)*; X1 = CO[C@@H]1CC[C@H](C(=O)[*:2])N1[*:1]; NMeF = CN[C@@H](Cc1ccccc1)C(=O)O

Key:
[1] = Inhibition of elastase (unknown origin); design: species or system Homo sapiens
[2] = biological target: Prothrombin (Homo sapiens) (UniProt P00734); experiment: Inhibition of thrombin (unknown origin) at 45.5 uM
Trypsin [3] = biological target: T1, Trypsin (Homo sapiens, UniProt P07477+P07478+P35030); experiment: Inhibition of trypsin (unknown origin) at 45.5 uM; assay type: protein assay
[4] = Inhibition of chymotrypsin (unknown origin); design: species or system Homo sapiens
Trypsin [5] = biological target: T1, Trypsin; experiment: Inhibition of trypsin (unknown origin); assay type: protein assay

Compound | IC50 [1] [µM] | inhibition [2] | inhibition (Trypsin [3]) | IC50 [4] [µM] | IC50 (Trypsin [5]) [µM]
CC(C)C[C@@H]1NC(=O)[C@@H](NC(=O)[C@H](CC(N)=O)NC(=O)[C@H](O)Cc2ccc(O)cc2)[C@@H](C)OC(=O)[C@H](C(C)C)NC(=O)[C@H](Cc2ccccc2)N(C)C(=O)[C@H](CC(C)C)N2C=CC[C@H](NC1=O)C2=O | 55.5 | inactive | inactive | 48.5 | 
CC(C)C[C@@H]1NC(=O)[C@@H](NC(=O)[C@H](CC(N)=O)NC(=O)[C@H](O)Cc2ccc(O)cc2)[C@@H](C)OC(=O)[C@H](C(C)C)NC(=O)[C@H](Cc2ccccc2)N(C)C(=O)[C@H](CC(C)C)N2C(=O)[C@H](CC[C@H]2O)NC1=O | 17.6 | inactive | inactive | 4.3 | 
CO[C@@H]1CC[C@@H]2C(=O)N[C@@H](CC(C)C)C(=O)N(C)[C@@H](Cc3ccccc3)C(=O)N[C@@H](C(C)C)C(=O)O[C@H](C)[C@H](NC(=O)[C@H](CC(N)=O)NC(=O)[C@H](O)Cc3ccc(O)cc3)C(=O)N[C@@H](CC(C)C)C(=O)N21 ({Propanoyl(2R-OH,3-(4-HOPh))}-NTL[X1]L[NMeF]V; ester 2-C) | 16.9 | inactive | inactive | 45.9 | 
CC(=O)O[C@@H]1CC[C@@H]2C[C@H](C(N)=O)N(C(=O)[C@@H](Cc3ccc(O)cc3)NC(=O)[C@@H](O)Cc3ccc(O)cc3)[C@@H]2C1 |  |  |  |  | 45.5
